Four compounds from patent US6166051A, “Thiol derivatives with metallopeptidase (ACE/NEP) inhibitory activity” (Zambon Group S.p.A., priority 1995, dated 2000) can be followed below.

Each structure is given as a SMILES string.

Experiment [1] has as its target T1, NEP (neutral endopeptidase enzyme) (Rattus norvegicus, UniProt P07861).
T1 construct: from tissue; host or cells: kidney cortex membranes of male Sprague-Dawley rats
T1 sequence (P07861 1-750): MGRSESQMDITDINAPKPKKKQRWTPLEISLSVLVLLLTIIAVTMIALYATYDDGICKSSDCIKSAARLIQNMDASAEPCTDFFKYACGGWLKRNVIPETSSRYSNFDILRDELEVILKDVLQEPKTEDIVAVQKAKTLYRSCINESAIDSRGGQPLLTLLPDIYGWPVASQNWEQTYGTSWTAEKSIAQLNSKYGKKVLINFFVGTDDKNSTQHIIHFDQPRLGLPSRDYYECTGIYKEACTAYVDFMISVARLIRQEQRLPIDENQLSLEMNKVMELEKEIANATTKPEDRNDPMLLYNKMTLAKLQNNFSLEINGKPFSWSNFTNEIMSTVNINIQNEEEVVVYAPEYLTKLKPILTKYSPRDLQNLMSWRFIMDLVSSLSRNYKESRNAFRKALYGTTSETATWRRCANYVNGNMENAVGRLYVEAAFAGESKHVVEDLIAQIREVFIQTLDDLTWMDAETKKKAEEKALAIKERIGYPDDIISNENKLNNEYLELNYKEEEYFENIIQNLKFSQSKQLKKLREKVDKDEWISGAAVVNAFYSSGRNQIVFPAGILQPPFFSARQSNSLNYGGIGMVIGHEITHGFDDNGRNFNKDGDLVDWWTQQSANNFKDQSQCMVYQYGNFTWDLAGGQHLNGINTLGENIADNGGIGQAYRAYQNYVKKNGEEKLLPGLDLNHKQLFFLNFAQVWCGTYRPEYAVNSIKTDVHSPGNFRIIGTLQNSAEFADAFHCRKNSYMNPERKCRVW
Description: NEP-inhibitory activity in rat kidney cortex membranes ([3H][Leu5]-enkephaline degradation). Conditions: in vitro, [3H][Leu5]-enkephaline 15 nM, 20 minutes at 30° C., pH 7.4. Type of experiment: biochemical. How it is done:
a) NEP-inhibitory Activity
The NEP-inhibitory activity was evaluated in rat kidney cortex membranes prepared according to the procedure described by T. Maeda et al. in Biochim Biophys. Acta 1983, 731(1), 115-120.
Kidneys were removed from male Sprague-Dawley rats weighing approximately 300 g and kept at 4° C.
Kidney cortex was carefully removed, finely minced and suspended into a homogenization buffer (10 mM sodium phosphate pH 7.4 containing 1 mM MgCl2, 30 mM NaCl, 0.02% NaN3) 1:15 weight/volume.
The tissue was then cold homogenized for 30 seconds using an Ultra-Turrax homogenizer.
Approximately 10 ml of homogenate were layered over 10 ml of sucrose (41% weight/volume) and centrifuged at 31200 rpm for 30 minutes at 4° C. in a fixed angle rotor.
The membranes were collected from the buffer/sucrose interface, washed twice with 50 mM TRIS/HCl buffer (pH 7.4) and resuspended into the same buffer for the storage of aliquots at -80° C. until use.
The NEP-inhibitory activity was evaluated according to the method described by C. Llorens et aL, in Eur. J. Pharmacol., 69, (1981), 113-116, as reported hereinafter.
Aliquots of the membrane suspension prepared as above described (concentration 5 μg/ml of proteins) were preincubated in the presence of an aminopeptidase inhibitor (Bestatin--1 mM) for 10 minutes at 30° C. [^3 H][Leu^5 ]-enkephaline (15 nM) and buffer TRIS/HCl pH 7.4 (50 mM) were added in order to obtain a final volume of 100 μl.
The enzymatic reaction was stopped by adding HCl 0.1M (100 μl) after 20 minutes of incubation at 30° C.
The formation of the metabolite [^3 H]Tyr-Gly-Gly was quantified, after separation of the unreacted substrate by chromatography on polystyrene columns (Porapak Q), by measuring the relative radioactivity through liquid scintillation.
The percentage of inhibition of the metabolite formation in the membrane preparations treated with the compounds of formula I and with the comparative compounds with respect to the untreated membrane preparations was expressed as IC50 (nM) value.

Experiment [2] concerns the target T2, ACE (angiotensin converting enzyme) (Oryctolagus cuniculus, UniProt P12822).
T2 construct: purchased SIGMA; host or cells: rabbit lung
T2 sequence (P12822 34-1310): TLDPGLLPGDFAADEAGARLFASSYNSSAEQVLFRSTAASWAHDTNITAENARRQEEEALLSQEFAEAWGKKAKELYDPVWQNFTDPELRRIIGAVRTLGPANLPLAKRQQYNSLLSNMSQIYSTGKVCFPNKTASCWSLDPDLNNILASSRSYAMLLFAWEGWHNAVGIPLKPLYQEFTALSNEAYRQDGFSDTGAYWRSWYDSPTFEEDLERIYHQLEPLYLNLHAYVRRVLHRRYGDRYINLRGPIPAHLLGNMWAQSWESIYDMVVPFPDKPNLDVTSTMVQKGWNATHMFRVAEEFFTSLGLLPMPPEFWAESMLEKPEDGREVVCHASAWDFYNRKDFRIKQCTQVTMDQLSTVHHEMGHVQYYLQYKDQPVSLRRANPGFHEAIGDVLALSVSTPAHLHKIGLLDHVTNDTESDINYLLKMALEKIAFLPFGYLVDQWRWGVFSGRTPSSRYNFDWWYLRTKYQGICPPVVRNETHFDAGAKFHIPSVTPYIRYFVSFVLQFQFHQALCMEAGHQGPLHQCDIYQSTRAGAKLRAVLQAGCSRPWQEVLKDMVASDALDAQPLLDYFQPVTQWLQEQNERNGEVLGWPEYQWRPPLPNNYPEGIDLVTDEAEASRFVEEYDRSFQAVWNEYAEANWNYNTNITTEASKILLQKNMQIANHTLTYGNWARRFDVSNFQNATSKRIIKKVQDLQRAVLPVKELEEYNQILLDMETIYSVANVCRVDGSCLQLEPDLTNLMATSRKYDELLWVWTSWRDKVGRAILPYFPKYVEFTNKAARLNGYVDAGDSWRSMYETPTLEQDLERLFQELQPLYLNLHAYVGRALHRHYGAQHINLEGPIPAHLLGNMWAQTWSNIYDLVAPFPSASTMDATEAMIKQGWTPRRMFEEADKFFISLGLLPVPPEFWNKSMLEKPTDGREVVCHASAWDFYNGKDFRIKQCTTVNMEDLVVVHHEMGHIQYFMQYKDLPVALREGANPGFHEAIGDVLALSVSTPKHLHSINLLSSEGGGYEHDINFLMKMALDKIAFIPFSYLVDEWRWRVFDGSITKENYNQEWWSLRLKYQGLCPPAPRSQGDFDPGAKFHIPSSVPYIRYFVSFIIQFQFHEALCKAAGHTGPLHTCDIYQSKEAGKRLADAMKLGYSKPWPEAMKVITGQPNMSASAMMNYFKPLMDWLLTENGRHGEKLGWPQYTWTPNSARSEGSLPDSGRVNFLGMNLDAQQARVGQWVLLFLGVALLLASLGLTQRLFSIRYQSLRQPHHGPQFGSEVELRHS
Description: ACE-inhibitory activity (FAPGG substrate, absorbance at 340 nm). It is filed as biochemical. Conditions: in vitro, ACE purified from rabbit lung, 37° C. How it is done:
b) ACE-inhibitory Activity
50 μM of ACE (250 μmU/ml purified by lung rabbit, EC 3.4.15.1 SIGMA) were preincubated with 50 μl of the compound of formula I or of the comparison compound or related vehicle in thermostated cuvettes at 37° C.
The reaction was started by adding 500 μl of furylacryloylphenylalanylglycylglycine 0.8 mM (FAPGG-SIGMA).
Contemporaneously, by using a Beckman DU-50 spectrophotometer provided with a program for calculating delta A/minutes and regression coefficients of the enzyme kinetics curyes, the absorbance at 340 nm was recorded in continuo for 5 minutes.
The percentage of inhibition in the preparations incubated with the compounds of formula I or with the comparative compounds with respect to the preparations incubated with the vehicle was expressed as IC50 (nM) value.

What is called IC50 is the concentration at which inhibition is half-maximal. A high value points to a need for much substance.

Take `C[C@H](CS)C(=O)N1CCC[C@H]1C(=O)O` [Captopril, reference compound]: the “NEP-inhibitory activity IC50 (nM)” value in experiment [1] is on record as “not active”.
On to `O=C(N[C@@H](Cc1cscn1)C(=O)O)C(CS)Cc1ccccc1` (stereo partly drawn) [compound 4, N-(2-phenylmethyl-3-mercaptopropionyl)-(4-thiazolyl)-L-alanine], for which the IC50 in experiment [1] was determined as 4.7 nM; in experiment [2], 12 nM.
On the same counts, the results for `O=C(N[C@@H](Cc1cccs1)C(=O)O)C(CS)Cc1ccccc1` (stereo partly drawn) [compound 5, N-(2-phenylmethyl-3-mercaptopropionyl)-(2-thienyl)-L-alanine] are 5.5 nM and 6.5 nM.
Consider `O=C(N[C@@H](Cc1ccccn1)C(=O)O)C(CS)Cc1ccccc1` (stereo partly drawn) [compound 6, N-(^2-phenylmethyl-3-mercaptopropionyl)-(2-pyridyl)-L-alanine], for which the half-maximal inhibitory concentration (IC50) in experiment [1] came to 7.1 nM; in experiment [2], 23 nM.
